Assay [1] relates to pTPF1/4B full-length HCV RNA replicon. As to the kind of experiment: Inhibition of replication of full-length HCV RNA replicon by interferon (core antigen in Huh7 cells). Type of assay: cell-based, hepatitis C virus (genotype 1b). Particulars: pTPF1/4B RNA in Huh7 cells; interferon 0.1 to 300 IU/ml for 24 hours; core antigen in cells vs no-interferon control. An excerpt: (§1) Evaluation of an inhibitory action of interferon on the replication of the HCV RNA replicon was attempted using the full-length HCV RNA replicon. The full-length HCV RNA used for the evaluation of the inhibitory action of interferon was pTPF1/4B which was replicable with high efficiency in Huh7 cells in Example 4 and a chimera between AHC1 obtained in Example 6 and pTPF1/4B was also used. As for a chimera vector, the full-length HCV DNA pTPF1 was digested with restriction enzymes, Age I and Bsr GI and a fragment obtained by digesting AHC1 with restriction enzymes, Age I and Bsr GI were ligated to and inserted into the region of the cleavage of pTPF1, thereby preparing HCV DNA pTPF1/AHC1_AgeBsr in which the structural protein region of AHC1 was inserted. […]
(§2) At twenty four hours after the culture was started, the medium was replaced with culture medium dissolving various concentrations (from 0.1 IU/ml to 300 IU/ml) of interferon. […] Cell pellet was dissolved in 50 μl of RIPA buffer (20 mM Tris-HCl (pH 7.5), 150 mM NaCl, 1 mM EDTA, 1% NP40, 0.1% Deoxycholate, 0.1% SDS, Complete protease inhibitor cocktail (Roche diagnostics corporation) and supernatant was collected by centrifugation at 10 k rpm for 5 minutes. The supernatant in an amount of 5 μl was measured using a kit for HCV core antigen (FUJIREBIO, Lumipulse).
(A replicon is a self-replicating genome or part of one, used to study replication in cells.)

The test system of assay [2] is pTPF1/AHC1_AgeBsr full-length HCV RNA replicon. The description is as above. Type of assay: cell-based, hepatitis C virus (genotype 1b). The following applies: interferon 0.1 to 300 IU/ml for 24 hours, core antigen in cells vs no-interferon control.
From the text: as §1, §2

Where only a bound is given, the exact number is not on record here.

Regarding interferon, the results for the “Inhibitory activity for replication of HCV RNA replicon: IC50” value in assay [1] and in assay [2] were over 300 IU/m and 33 IU/m, respectively.

The record behind these values is US20100173298A1, “HCV GENE” (priority 2007, published 2010).
